Data taken from patent US20250177477A1, “CYCLOSPORIN ANALOGUES AND USES THEREOF” (DYNEQ MEDICAL LIMITED, priority 2017, published 2025).
One block for each compound: values may come before it.

How the values were obtained:
[1] = tested on: Sprague-Dawley rats with induced Acute Kidney Injury; assay: Renal Ischemia-Reperfusion Induced Acute Kidney Injury in rats; format: in vivo, rat; conditions: for Creatinine: serum 24 hours after ligation/release
Protocol: With the exception of Group (i), i.e. the ‘sham group’, renal Ischemia-Reperfusion Induced Acute Kidney Injury (AKI) was induced in the rats by ligation of bilateral renal arteries for 30 min and then ligation was released. Animals in the control and treatment groups were administered intraperitoneal injections three times (1 h before ligation, 4 h and 8 h after ligation). Blood was taken from the animals 24 hours after the ligation/release procedure and analyzed for serum Creatinine and Blood Urea Nitrogen (BUN) concentrations, as a measure of kidney injury.

Cyclophilin A = Cyclophilin A (Homo sapiens, UniProt P62937); assay: Cyclophilin inhibition binding, competitive ELISA (Cyclophilin A); conditions: human recombinant cyclophilin, read-out: CypA EC50
Protocol: (§1) The cyclophilin inhibition binding of compounds disclosed herein was determined using a competitive ELISA adapted from the methods described by Quesniaux et al. (Eur. J Immunol., 1987, 17:1359-1365). Activated ester of succinyl spacers bound to D-Lys^8-cylosporine A (D-Lys^8-Cs) are coupled to bovine serum albumin (BSA) through D-lysyl residue in position 8. BSA is dissolved in 0.1 M borate buffer, pH 9.0 (4 mg in 1.4 ml). A hundredfold molar excess of D-Lys^8-Cs dissolved in dimethyl formamide (0.6 ml) is added drop wise to the BSA under vigorous stirring. The coupling reaction is performed for 2 to 3 hours at room temperature under mild stirring and the conjugate is extensively dialyzed against phosphate-buffered saline (PBS, pH 7.4).
(§2) Microtiter Plates are coated with D-Lys^8-Cs-BSA conjugate (2 μg/ml in PBS for 24 hours at 4° C.). Plates are washed with Tween®/PBS and with PBS alone. To block nonspecific binding, 2% BSA/PBS (pH 7.4) is added to the wells and allowed to incubate for 2 hours at 37° C. […] Cyclophilin is detected with anti-cyclophilin rabbit antiserum diluted in 1% BSA containing PBS and incubates overnight at 4° C. […] Bound rabbit antibodies are then detected by goat anti-rabbit IgG conjugated to alkaline phosphatase diluted in 1% BSA-PBS and allowed to incubate for 2 hours at 37° C. […]

Cyclophilin D = Cyclophilin D (Homo sapiens, UniProt P30405); assay: Cyclophilin inhibition binding, competitive ELISA (Cyclophilin D); conditions: human recombinant cyclophilin, read-out: CypD EC50
Protocol: as §1, §2

cyclophilin B = cyclophilin B (Homo sapiens, UniProt P23284); assay: Cyclophilin inhibition binding, competitive ELISA (Cyclophilin B); conditions: human recombinant cyclophilin, read-out: EC50 against cyclophilin B
Protocol: as §1, with “[…] After acetone precipitation of an aliquot of the conjugated protein, no covalently bound D-Lys^8-Cs remains in the acetone solution” for “The coupling reaction is performed for 2 to 3 hours at room temperature under mild stirring”, “extent of cyclosporine covalent binding” for “conjugate”, “calculated.” for “extensively dialyzed against phosphate-buffered saline (PBS, pH 7.4).”
Microtiter Plates are coated with D-Lys^8-Cs-BSA conjugate (2 μg/ml in PBS for 24 hours at 4° C.). […] Cyclophilin is detected with anti-cyclophilin rabbit antiserum diluted in 1% BSA containing PBS and incubates overnight at 4° C. […] Bound rabbit antibodies are then detected by goat anti-rabbit IgG conjugated to alkaline phosphatase diluted in 1% BSA-PBS and allowed to incubate for 2 hours at 37° C. […] After incubation with 4-nitrophenyl phosphate (1 g/l in diethanolamine buffer, pH 9.8) for 1 to 2 hours at 37° C., the enzymatic reaction is measured spectrophotometrically at 405 nm using a spectrophotometer. […]

Cyclophilin D, sequence (P30405 30-207): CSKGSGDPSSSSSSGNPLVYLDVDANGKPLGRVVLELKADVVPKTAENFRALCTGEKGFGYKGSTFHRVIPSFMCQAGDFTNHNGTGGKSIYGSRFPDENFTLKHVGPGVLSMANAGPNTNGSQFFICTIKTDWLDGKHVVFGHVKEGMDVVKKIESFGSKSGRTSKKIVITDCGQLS
cyclophilin B, sequence (P23284 34-216): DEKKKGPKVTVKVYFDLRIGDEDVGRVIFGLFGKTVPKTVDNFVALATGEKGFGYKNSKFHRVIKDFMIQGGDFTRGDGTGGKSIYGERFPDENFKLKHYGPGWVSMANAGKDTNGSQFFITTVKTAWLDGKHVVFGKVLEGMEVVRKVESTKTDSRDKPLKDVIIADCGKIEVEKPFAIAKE
Cyclophilin A, sequence (P62937 whole entry): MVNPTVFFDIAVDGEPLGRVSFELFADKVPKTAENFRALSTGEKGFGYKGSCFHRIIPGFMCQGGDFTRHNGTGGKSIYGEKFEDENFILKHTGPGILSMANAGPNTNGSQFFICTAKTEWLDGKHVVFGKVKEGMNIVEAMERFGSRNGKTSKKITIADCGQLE

Compound: C/C=C/C[C@@H](C)[C@@H](O)[C@H]1C(=O)N[C@@H](CC)C(=O)N(C)CC(=O)N(C)[C@@H](CC(C)C)C(=O)N[C@@H](C(C)C)C(=O)N(C)[C@@H](CC(C)C)C(=O)N[C@@H](C)C(=O)N[C@H](C)C(=O)N(C)[C@@H](CC(C)C)C(=O)N(C)[C@@H](CC(C)C)C(=O)N(C)[C@@H](C(C)C)C(=O)N1C [CsA, Cyclosporin A]
Creatinine ([1]; 3 mg/kg i.p. three times): 115 µmol/L
Blood Urea Nitrogen ([1]; 10 mg/kg i.p. three times, 24 hours after ligation/release): 42 mmol/L
Creatinine ([1]; 10 mg/kg i.p. three times): 290 µmol/L

EC50 (Cyclophilin A): 61 nM
EC50 (Cyclophilin D): 2170 nM
Compound: C/C=C/C[C@@H](C)[C@@H](O)[C@H]1C(=O)N[C@@H](CC)C(=O)N(C)[C@H](OCCNC)C(=O)N(C)[C@@H](CC(C)C)C(=O)N[C@@H](C(C)C)C(=O)N(C)[C@@H](CC(C)C)C(=O)N[C@@H](C)C(=O)N[C@H](C)C(=O)N(C)[C@@H](CC(C)C)C(=O)N(C)[C@@H](CC(C)C)C(=O)N(C)[C@@H](C(C)C)C(=O)N1C [Entry 1]

Compound: C/C=C/C[C@@H](C)[C@@H](O)[C@H]1C(=O)N[C@@H](CC)C(=O)N(C)[C@H](OCCN(C)C)C(=O)N(C)[C@@H](CC(C)C)C(=O)N[C@@H](C(C)C)C(=O)N(C)[C@@H](CC(C)C)C(=O)N[C@@H](C)C(=O)N[C@H](C)C(=O)N(C)[C@@H](CC(C)C)C(=O)N(C)[C@@H](CC(C)C)C(=O)N(C)[C@@H](C(C)C)C(=O)N1C [Compound 1]
EC50 (cyclophilin B): < 100 nM
